In one test the target is T1, human GlyT1c transporter (Homo sapiens, UniProt P48067).
T1 construct: expressed in transfected cells; host or cells: CHO cells (recombinant; line hGlyT1c_5_CHO is named for the uptake assay)
T1 sequence (P48067 1-706): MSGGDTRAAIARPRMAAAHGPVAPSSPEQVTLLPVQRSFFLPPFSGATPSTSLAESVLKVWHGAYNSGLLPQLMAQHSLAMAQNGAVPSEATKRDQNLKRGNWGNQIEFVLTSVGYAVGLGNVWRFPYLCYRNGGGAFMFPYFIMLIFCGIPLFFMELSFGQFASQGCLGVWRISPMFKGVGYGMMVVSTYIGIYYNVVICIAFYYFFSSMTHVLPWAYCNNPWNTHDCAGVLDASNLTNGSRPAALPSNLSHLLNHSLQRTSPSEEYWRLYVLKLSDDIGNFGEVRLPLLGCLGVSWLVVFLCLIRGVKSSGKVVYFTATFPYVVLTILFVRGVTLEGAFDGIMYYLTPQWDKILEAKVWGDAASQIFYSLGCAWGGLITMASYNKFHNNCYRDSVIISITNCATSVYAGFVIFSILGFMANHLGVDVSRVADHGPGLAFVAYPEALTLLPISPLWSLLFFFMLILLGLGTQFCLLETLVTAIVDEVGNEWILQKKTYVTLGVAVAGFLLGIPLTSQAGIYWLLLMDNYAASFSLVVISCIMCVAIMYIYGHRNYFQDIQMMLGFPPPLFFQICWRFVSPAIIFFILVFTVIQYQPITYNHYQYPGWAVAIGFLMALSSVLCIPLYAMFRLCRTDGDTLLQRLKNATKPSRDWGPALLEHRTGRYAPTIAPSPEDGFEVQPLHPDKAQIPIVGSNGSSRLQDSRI
In words: Radioligand binding assay using recombinant CHO cell membranes expressing human GlyT1. The note with it: radioligand binding to human GlyT1c transporter-expressing membranes. From the text: 2. Radioligand binding assays using recombinant CHO cell membranes expressing human GlyT1: […]
On to `Cn1cnc(S(=O)(=O)N2C[C@@H](Nc3cccc(Cl)c3)[C@H](C3CC3)C2)c1` (relative stereo) [Example 338, Trans-N-(3-chlorophenyl)-4-cyclopropyl-1-[(1-methyl-1H-imidazol-4-yl)sulfonyl]pyrrolidin-3-amine], for which the Ki (usually the equilibrium dissociation constant of an inhibitor or competing ligand from its target) is at most 1000 nM. Still for that read-out and setting: to `Cn1cnc(S(=O)(=O)N2C[C@H](Nc3cccc(-c4ccccn4)c3)[C@@H](c3ccc(F)cc3)C2)c1` [Example 801, (3R,4S)-4-(4-fluorophenyl)-1-[(1-methyl-1H-imidazol-4-yl)sulfonyl]-N-[3-(pyridin-2-yl)phenyl]pyrrolidin-3-amine] belongs at most 10 nM; to `Cn1cnc(S(=O)(=O)N2C[C@@H](C(=O)c3ccc(Cl)c(Cl)c3)[C@H](c3ccc(F)cc3)C2)c1` (relative stereo) [Example 359, (3,4-Dichlorophenyl){trans-4-(4-fluorophenyl)-1-[(1-methyl-1H-imidazol-4-yl)sulfonyl]pyrrolidin-3-yl} methanone], at most 1000 nM. For `Cn1cnc(S(=O)(=O)N2C[C@@H](Nc3cc(F)cc(Cl)c3)[C@H](c3ccccc3)C2)c1` (relative stereo) [Example 225, trans-N-(3-chloro-5-fluorophenyl)-1-[(1-methyl-1H-imidazol-4-yl)sulfonyl]-4-phenylpyrrolidin-3-amine], the inhibitory constant (Ki) was at most 10000 nM. As for `C=CCO[C@@H]1CN(S(=O)(=O)c2cn(C)cn2)C[C@H]1Nc1cccc(Cl)c1` (relative stereo) [Example 402, Trans-N-(3-chlorophenyl)-1-[(1-methyl-1H-imidazol-4-yl)sulfonyl]-4-(prop-2-en-1-yloxy)pyrrolidin-3-amine], the Ki was at most 10000 nM. Same read-out and setting: to `Cn1cnc(S(=O)(=O)N2C[C@H](Nc3cccc(C(F)(F)F)c3)[C@@H](c3ccccc3)C2)c1` [Example 397, (3R,4S)-1-[(1-methyl-1H-imidazol-4-yl)sulfonyl]-4-phenyl-N-[3-(trifluoromethyl)phenyl]pyrrolidin-3-amine] belongs at most 10 nM; to `Cc1nc(C)c(CN[C@H]2CN(S(=O)(=O)c3cn(C)cn3)C[C@@H]2c2ccccc2)s1` [Example 441, (3R,4S)-N-[(2,4-dimethyl-1,3-thiazol-5-yl)methyl]-1-[(1-methyl-1H-imidazol-4-yl)sulfonyl]-4-phenylpyrrolidin-3-amine], at most 10000 nM. Still for that read-out and setting: to `Cn1cnc(S(=O)(=O)N2C[C@@H](C(=O)NCc3ccc(F)c(Cl)c3)[C@H](c3ccc(F)cc3)C2)c1` (relative stereo) [Example 642, Trans-N-(3-chloro-4-fluorobenzyl)-4-(4-fluorophenyl)-1-[(1-methyl-1H-imidazol-4-yl)sulfonyl]pyrrolidine-3-carboxamide] belongs at most 10 nM.

For `Cn1cnc(S(=O)(=O)N2C[C@@H](NC(=O)c3ccc(Cl)cc3)[C@H](c3ccccc3)C2)c1` (relative stereo) [Example 16, 4-chloro-N-{trans-1-[(1-methyl-1H-imidazol-4-yl)sulfonyl]-4-phenylpyrrolidin-3-yl}benzamide], the inhibition constant (Ki) was at most 1000 nM. With `Cn1cnc(S(=O)(=O)N2C[C@@H](NCc3ccc(Cl)cc3)[C@H](c3ccc(F)cc3)C2)c1` (relative stereo) [Example 262, trans-N-(4-chlorobenzyl)-4-(4-fluorophenyl)-1-[(1-methyl-1H-imidazol-4-yl)sulfonyl]pyrrolidin-3-amine], the Ki is at most 10 nM. Turning to `O=S(=O)(c1cccc2cnccc12)N1CC(Nc2ccc(F)c(F)c2)C(c2ccccc2)C1` (stereo not drawn) [Example 515, N-(3,4-difluorophenyl)-1-(isoquinolin-5-ylsulfonyl)-4-phenylpyrrolidin-3-amine], the Ki was at most 10000 nM. Turning to `Cn1cnc(S(=O)(=O)N2C[C@H](Nc3cccc(OCC(F)(F)F)c3)[C@@H](c3ccccc3)C2)c1` [Example 670, (3R,4S)-1-[(1-methyl-1H-imidazol-4-yl)sulfonyl]-4-phenyl-N-[3-(2,2,2-trifluoroethoxy)phenyl]pyrrolidin-3-amine], the Ki is at most 10 nM. Turning to `Cc1oncc1S(=O)(=O)N1CC(Nc2ccc(F)c(F)c2)C(c2ccccc2)C1` (stereo not drawn) [Example 487, N-(3,4-difluorophenyl)-1-[(5-methyl-1,2-oxazol-4-yl)sulfonyl]-4-phenylpyrrolidin-3-amine], the Ki was at most 10000 nM. On the same count and under the same terms, the figure for `COc1ccc(S(=O)(=O)N2C[C@@H](NC(=O)c3ccc(C(F)(F)F)cc3)[C@H](c3ccccc3)C2)cc1` (relative stereo) [Example 134, N-{trans-1-[(4-methoxyphenyl)sulfonyl]-4-phenylpyrrolidin-3-yl}-4-(trifluoromethyl)benzamide] is at most 10000 nM; for `Cn1cnc(S(=O)(=O)N2C[C@H](Nc3cnc(C4CC4)cn3)[C@@H](c3ccccc3)C2)c1` [Example 410, 5-cyclopropyl-N-{(3R,4S)-1-[(1-methyl-1H-imidazol-4-yl)sulfonyl]-4-phenylpyrrolidin-3-yl}pyrazin-2-amine] it is at most 10000 nM.

As for `CCCS(=O)(=O)N1C[C@@H](Nc2cccc(C#N)c2)[C@H](c2ccccc2)C1` (relative stereo) [Example 132, 3-{[trans-4-phenyl-1-(propylsulfonyl)pyrrolidin-3-yl]amino}benzonitrile], the Ki was at most 10000 nM. Same read-out and setting: the figure for `CCCNC(=O)CO[C@@H]1CN(S(=O)(=O)c2cn(C)cn2)C[C@H]1c1ccc(F)cc1` (relative stereo) [Example 689, 2-({Trans-4-(4-fluorophenyl)-1-[(1-methyl-1H-imidazol-4-yl)sulfonyl]pyrrolidin-3-yl}oxy)-N-propylacetamide] is at most 1000 nM; for `COCCCNC(=O)[C@H]1CN(S(=O)(=O)c2cn(C)cn2)C[C@@H]1c1ccc(F)cc1` [Example 583, (3R,4S)-4-(4-fluorophenyl)-N-(3-methoxypropyl)-1-[(1-methyl-1H-imidazol-4-yl)sulfonyl]pyrrolidine-3-carboxamide] it is at most 10000 nM. Same read-out and setting: to `Cc1cc(S(=O)(=O)N2CC(Nc3ccc(F)c(F)c3)C(c3ccccc3)C2)c(C)s1` (stereo not drawn) [Example 517, N-(3,4-difluorophenyl)-1-[(2,5-dimethylthiophen-3-yl)sulfonyl]-4-phenylpyrrolidin-3-amine] belongs at most 10000 nM. Same read-out and setting: the figure for `Cn1cnc(S(=O)(=O)N2C[C@@H](NC(=O)c3ccc(C(F)(F)F)cc3Cl)[C@H](c3ccc(F)cc3)C2)c1` (relative stereo) [Example 62, 2-chloro-N-{trans-4-(4-fluorophenyl)-1-[(1-methyl-1H-imidazol-4-yl)sulfonyl]pyrrolidin-3-yl}-4-(trifluoromethyl)benzamide] is at most 100 nM; for `Cn1cnc(S(=O)(=O)N2C[C@H](Nc3cc(OCC(F)(F)F)c(F)cn3)[C@@H](c3ccccc3)C2)c1` [Example 803, 5-fluoro-N-{(3R,4S)-1-[(1-methyl-1H-imidazol-4-yl)sulfonyl]-4-phenylpyrrolidin-3-yl}-4-(2,2,2-trifluoroethoxy)pyridin-2-amine] it is at most 10 nM. Regarding `Cn1cnc(S(=O)(=O)N2C[C@H](NC(=O)CCCC(C)(F)F)[C@@H](c3ccc(F)cc3)C2)c1` [Example 735, 5,5-difluoro-N-{(3R,4S)-4-(4-fluorophenyl)-1-[(1-methyl-1H-imidazol-4-yl)sulfonyl]pyrrolidin-3-yl}hexanamide], the Ki is at most 10000 nM. Same read-out and setting: the figure for `Cn1cnc(S(=O)(=O)N2C[C@@H](Nc3cccc(C(C)(C)C)c3)[C@H](c3ccc(F)cc3)C2)c1` (relative stereo) [Example 171, trans-N-(3-tert-butylphenyl)-4-(4-fluorophenyl)-1-[(1-methyl-1H-imidazol-4-yl)sulfonyl]pyrrolidin-3-amine] is at most 100 nM; for `Cn1cnc(S(=O)(=O)N2C[C@H](NCCCCC3OCCC(C)(C)O3)[C@@H](c3ccc(F)cc3)C2)c1` (stereo partly drawn) [Example 684, (3R,4S)-N-[4-(4,4-dimethyl-1,3-dioxan-2-yl)butyl]-4-(4-fluorophenyl)-1-[(1-methyl-1H-imidazol-4-yl)sulfonyl]pyrrolidin-3-amine] it is at most 1000 nM; for `Cn1cnc(S(=O)(=O)N2C[C@@H](Nc3cc(C(F)(F)F)ccn3)[C@H](c3ccccc3)C2)c1` (relative stereo) [Example 212, N-{trans-1-[(1-methyl-1H-imidazol-4-yl)sulfonyl]-4-phenylpyrrolidin-3-yl}-4-(trifluoromethyl)pyridin-2-amine] it is at most 100 nM.

The same test, now with this note: radioligand binding, recombinant CHO cell membranes expressing human GlyT1c.
On to `Cn1cnc(S(=O)(=O)N2C[C@@H](Nc3cc(C(F)(F)F)c(Cl)cn3)[C@H](C3CCCO3)C2)c1` (relative stereo) [Example 844, 5-Chloro-N-[trans-1-[(1-methyl-1H-imidazol-4-yl)sulfonyl]-4-(tetrahydrofuran-2-yl)pyrrolidin-3-yl]-4-(trifluoromethyl)pyridin-2-amine], for which the Ki is at most 1000 nM.

As for `Cn1cnc(S(=O)(=O)N2C[C@H](Nc3cc(C(F)(F)F)c(F)cn3)[C@@H](c3ccc(F)cc3)C2)c1` [Example 865, 5-fluoro-N-{(3R,4S)-4-(4-fluorophenyl)-1-[(1-methyl-1H-imidazol-4-yl)sulfonyl]pyrrolidin-3-yl}-4-(trifluoromethyl)pyridin-2-amine], the Ki was at most 10 nM.

The record behind these values is patent publication EP2970215B1, “PYRROLIDINE DERIVATIVES, PHARMACEUTICAL COMPOSITIONS CONTAINING THEM, AND THEIR USE IN THERAPY” (AbbVie Deutschland GmbH & Co. KG, priority 2013, dated 2014).
